Data reported in ChEMBL document CHEMBL1201862, “PubChem BioAssay data set” (2004).
Several values for one entry are separate records, joined by “and”; a condition that tells them apart may be missing. Equal values may be shown once.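 These data come from cells grown in 96-well plates and exposed to compound for 48 hours at five concentrations. GI50: concentration for 50% inhibition of growth.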 Activity calls are given as the source filed them. Rule as the data show it: active = GI50 up to about 1.1 µM and inactive = higher.

Experiments:
Assay in all cases: inhibition of tumour cell growth, NCI panel, 48 h
786-0 = tested on: 786-0
UO-31 = tested on: UO-31
TK-10 = tested on: TK-10
A498 = tested on: A498
OVCAR-8 = tested on: OVCAR-8
UACC-62 = tested on: UACC-62
Malme-3M = tested on: Malme-3M
KM-20L2 = tested on: KM-20L2
SW-620 = tested on: SW-620
HOP-62 = tested on: HOP-62
OVCAR-4 = tested on: OVCAR-4
SK-MEL-28 = tested on: SK-MEL-28
HT-29 = tested on: HT-29
SK-MEL-2 = tested on: SK-MEL-2
LOX IMVI = tested on: LOX IMVI
DU-145 = tested on: DU-145
NCI/ADR-RES = tested on: NCI/ADR-RES
KM12 = tested on: KM12
HCC 2998 = tested on: HCC 2998
BT-549 = tested on: BT-549

Measured: GI50

Cc1ccc(N2C(=O)/C(=C3\Sc4c(nc(C)[nH]c4=O)N3c3ccccc3)SC2=S)cc1
inactive: 786-0 10.4 µM | UO-31 29.2 µM | TK-10 24 µM | A498 34.4 µM | OVCAR-8 34.6 µM | UACC-62 > 100 µM | Malme-3M 46.8 µM | KM-20L2 > 100 µM | SW-620 > 100 µM | HOP-62 10.4 µM | OVCAR-4 29.2 µM | SK-MEL-28 > 100 µM | HT-29 68.9 µM | SK-MEL-2 20.3 µM | LOX IMVI 15.5 µM

CCNC(=O)Cc1nc2c(O)ncnc2n1C1OC(CO)C(O)C1O (configuration not stated)
inactive: 786-0 > 100 µM | UO-31 > 100 µM | TK-10 > 100 µM | A498 > 100 µM | OVCAR-8 > 100 µM | UACC-62 > 100 µM | DU-145 > 100 µM | NCI/ADR-RES > 100 µM | KM12 > 100 µM | Malme-3M > 100 µM | HCC 2998 > 100 µM | SW-620 > 100 µM | HOP-62 > 100 µM | OVCAR-4 > 100 µM | SK-MEL-28 > 100 µM | BT-549 > 100 µM | HT-29 > 100 µM | SK-MEL-2 > 100 µM | LOX IMVI > 100 µM

COC(=O)C1=CC2CC1C(S(=O)(=O)c1ccccc1)C2S(=O)(=O)c1ccccc1 (configuration not stated)
inactive: 786-0 10.3 µM | UO-31 14.3 µM | TK-10 10.4 µM | A498 17.6 µM | OVCAR-8 13 µM | UACC-62 22.1 µM | Malme-3M 10.7 µM | KM-20L2 16.4 µM | HCC 2998 19.7 µM | SW-620 4.59 µM | HOP-62 54.3 µM | OVCAR-4 17.5 µM | SK-MEL-28 14.1 µM | HT-29 13.8 µM | LOX IMVI 13.7 µM

CCOC(=O)/C(=C/c1cccc(OC)c1)N(CC)CC
inactive: 786-0 > 100 µM | UO-31 > 100 µM | TK-10 > 100 µM | A498 > 100 µM | OVCAR-8 > 100 µM | UACC-62 > 100 µM | KM12 > 100 µM | KM-20L2 > 100 µM | SW-620 > 100 µM | HOP-62 > 100 µM | OVCAR-4 > 100 µM | SK-MEL-28 > 100 µM | HT-29 > 100 µM | SK-MEL-2 > 100 µM | LOX IMVI > 100 µM

C=CCCCCCC(O)C(O)C/C=C\C/C=C\CC (configuration not stated)
inactive: 786-0 > 18.8 µM | UO-31 > 18.8 µM | TK-10 > 18.8 µM | OVCAR-8 > 18.8 µM | UACC-62 > 18.8 µM | KM12 > 18.8 µM | Malme-3M > 18.8 µM | KM-20L2 > 18.8 µM | HCC 2998 > 18.8 µM | SW-620 > 18.8 µM | HOP-62 > 16.8 µM | OVCAR-4 > 18.8 µM | SK-MEL-28 > 18.8 µM | HT-29 > 18.8 µM | SK-MEL-2 > 18.8 µM | LOX IMVI > 15.4 µM

NC(=O)CCC(Nc1c2ccccc2nc2ccccc12)C(=O)O (configuration not stated)
inactive: 786-0 > 100 µM | TK-10 > 100 µM | OVCAR-8 > 100 µM | KM12 > 100 µM | Malme-3M > 100 µM | KM-20L2 > 100 µM | HCC 2998 > 100 µM | SW-620 > 100 µM | OVCAR-4 4.14 µM | SK-MEL-28 > 100 µM | HT-29 93.1 µM | SK-MEL-2 > 100 µM | LOX IMVI 63.7 µM

CN(CCO)c1nc(=O)c2c([nH]1)CCC2
inactive: 786-0 > 100 µM | UO-31 > 100 µM | TK-10 > 100 µM | OVCAR-8 > 100 µM | UACC-62 > 100 µM | KM12 > 100 µM | Malme-3M > 100 µM | KM-20L2 > 100 µM | HCC 2998 > 100 µM | SW-620 > 100 µM | HOP-62 > 100 µM | OVCAR-4 > 100 µM | SK-MEL-28 > 100 µM | HT-29 > 100 µM | SK-MEL-2 > 100 µM | LOX IMVI > 100 µM

O=C1c2ccccc2N2OC3(N4CCCC4)CCCC3C12c1ccccc1 (configuration not stated)
inactive: 786-0 > 100 µM | UO-31 > 100 µM | A498 > 100 µM | OVCAR-8 > 100 µM | UACC-62 74.3 µM | Malme-3M > 100 µM | KM-20L2 > 100 µM | HCC 2998 > 100 µM | SW-620 > 100 µM | HOP-62 > 100 µM | OVCAR-4 29.6 µM | SK-MEL-28 > 100 µM | HT-29 > 100 µM

COc1cccc2c(SCC(=O)Nc3ccccc3-c3ccccc3NC(=O)CSc3c4ccccc4nc4c(OC)cccc34)c3ccccc3nc12
inactive: 786-0 > 100 µM | TK-10 > 100 µM | OVCAR-8 > 100 µM | UACC-62 38.6 µM | KM12 > 100 µM | KM-20L2 > 100 µM | HCC 2998 > 100 µM | HOP-62 > 100 µM | OVCAR-4 > 100 µM | SK-MEL-28 > 100 µM | HT-29 > 100 µM | SK-MEL-2 > 100 µM

C=C/C=C/NC(=O)OCc1ccccc1
inactive: 786-0 > 100 µM | UO-31 > 100 µM | TK-10 > 100 µM | OVCAR-8 > 100 µM | UACC-62 > 100 µM | KM12 > 100 µM | KM-20L2 > 100 µM | SW-620 > 100 µM | HOP-62 > 100 µM | OVCAR-4 > 100 µM | SK-MEL-28 > 100 µM | HT-29 > 100 µM | SK-MEL-2 > 100 µM | LOX IMVI > 100 µM

Nc1ccc(C(=O)O)c2[nH]c3ccccc3c(=O)c12
inactive: 786-0 > 100 µM | UO-31 > 100 µM | TK-10 > 100 µM | A498 > 100 µM | OVCAR-8 > 100 µM | UACC-62 > 100 µM | KM12 > 100 µM | Malme-3M > 100 µM | KM-20L2 > 100 µM | HCC 2998 > 100 µM | SW-620 > 100 µM | HOP-62 > 100 µM | OVCAR-4 > 100 µM | HT-29 > 100 µM | SK-MEL-2 > 100 µM | LOX IMVI > 100 µM

Cc1ccc2[nH]c3c(c2c1)C1CCC(C(C)(C)C)CC1C1C(=O)N(c2ccc(Oc4ccccc4)cc2)C(=O)C31 (configuration not stated)
inactive: 786-0 4.72 µM | UO-31 41 µM | TK-10 20 µM | A498 9.57 µM | OVCAR-8 8.73 µM | UACC-62 47.1 µM | DU-145 > 95.3 µM | NCI/ADR-RES 20.5 µM | KM12 > 100 µM | Malme-3M 12.3 µM | HCC 2998 39.3 µM | SW-620 19.3 µM | HOP-62 22.4 µM | OVCAR-4 14.2 µM | SK-MEL-28 > 58.7 µM | BT-549 20 µM | HT-29 > 79.6 µM | SK-MEL-2 34.9 µM | LOX IMVI 24.2 µM

CC1=C(C(=O)Nc2c(C)cccc2C)C(c2ccc3c(c2)OCO3)C(C(=O)Nc2c(C)cccc2C)=C(C)N1
inactive: 786-0 13.7 µM | UO-31 16.9 µM | TK-10 24.7 µM | OVCAR-8 18.1 µM | UACC-62 2.7 µM | KM12 15.3 µM | Malme-3M 20.2 µM | KM-20L2 15.5 µM | HCC 2998 18.1 µM | SW-620 18.2 µM | HOP-62 23.1 µM | OVCAR-4 30.3 µM | SK-MEL-28 22.2 µM | HT-29 16.2 µM | LOX IMVI 13.7 µM

CCCCCC(CN1CCOCC1)C(=O)/C=C/c1ccccc1 (configuration not stated)
inactive: 786-0 1.76 µM | UO-31 6.61 µM | UACC-62 1.46 µM | KM12 1.76 µM | Malme-3M 2.1 µM | KM-20L2 3.03 µM | HCC 2998 2 µM | SW-620 1.74 µM | HOP-62 5 µM | OVCAR-4 2.95 µM | SK-MEL-28 5.82 µM | HT-29 2.67 µM | LOX IMVI 1.37 µM

O=S(O)CCCCSSCC(O)C(O)CSSCCCCS(=O)O (configuration not stated)
inactive: 786-0 > 100 µM | UO-31 16.7 µM and 9.33 µM | TK-10 68.2 µM and 53.8 µM | A498 64.3 µM and 61.9 µM | OVCAR-8 30.1 µM and 22.2 µM | UACC-62 12.9 µM and 8.73 µM | KM12 21.2 µM and 15 µM | Malme-3M 7.08 µM and 7.24 µM | KM-20L2 > 100 µM and 50.6 µM | SW-620 21.5 µM and 19.5 µM | HOP-62 > 100 µM | OVCAR-4 10.7 µM and 5.66 µM | SK-MEL-28 21.6 µM and 14.9 µM | HT-29 13.5 µM and 9.16 µM | SK-MEL-2 17.4 µM and 15 µM | LOX IMVI 15.4 µM and 10.8 µM

CC1CCCCc2nc3c(c(=O)n21)CCCC3 (configuration not stated)
inactive: 786-0 > 100 µM | UO-31 > 100 µM | TK-10 > 100 µM | OVCAR-8 63.2 µM | UACC-62 > 100 µM | KM12 > 100 µM | Malme-3M > 100 µM | KM-20L2 > 100 µM | HCC 2998 > 100 µM | SW-620 > 100 µM | HOP-62 > 100 µM | OVCAR-4 > 100 µM | SK-MEL-28 > 100 µM | HT-29 > 100 µM | SK-MEL-2 > 100 µM | LOX IMVI > 100 µM

Clc1ccc2c(NCCNc3ccnc4cc(Cl)ccc34)ccnc2c1
inactive: 786-0 14.3 µM | UO-31 15.7 µM | TK-10 17.9 µM | A498 16.9 µM | OVCAR-8 19.7 µM | UACC-62 18.1 µM | DU-145 22.8 µM | NCI/ADR-RES 30.8 µM | KM12 18.2 µM | Malme-3M > 100 µM | HCC 2998 15.2 µM | SW-620 13.6 µM | HOP-62 16.2 µM | OVCAR-4 20 µM | SK-MEL-28 17.3 µM | BT-549 19.2 µM | HT-29 15.3 µM | SK-MEL-2 18.9 µM | LOX IMVI 17.7 µM
